# Source: ChEMBL document CHEMBL3045601, “Synthesis of new quinoline-2-pyrazoline-based thiazolinone derivatives as potential antimicrobial agents” (2013)
# Tested on: Pseudomonas aeruginosa
# Assay: Antibacterial activity against Pseudomonas aeruginosa MTCC 1688 assessed as growth inhibition after 24 hr by NCCLS broth microdilution method
# Type: functional
# Settings: MTCC 1688, 24 h
row,SMILES,MIC [µg/mL]
1,CC1(C)S[C@@H]2[C@H](NC(=O)[C@H](N)c3ccccc3)C(=O)N2[C@H]1C(=O)O [AMPICILLIN],100
2,COc1ccc(C2=NN(C3=NC(=O)CS3)C(c3cc4cc(C)ccc4nc3Cl)C2)cc1 (stereo unspecified),500
3,Cc1ccc2nc(Cl)c(C3CC(c4cccc(F)c4)=NN3C3=NC(=O)CS3)cc2c1 (stereo unspecified),100
4,Cc1ccc2nc(Cl)c(C3CC(c4ccc(Cl)cc4)=NN3C3=NC(=O)CS3)cc2c1 (stereo unspecified),100
5,Cc1ccc2nc(Cl)c(C3CC(c4ccc(O)cc4)=NN3C3=NC(=O)CS3)cc2c1 (stereo unspecified),250
6,Cc1ccc2nc(Cl)c(C3CC(c4ccccc4)=NN3C3=NC(=O)CS3)cc2c1 (stereo unspecified),250

# The remaining lines, values ahead:
row,MIC [µg/mL],SMILES
1,500,Cc1ccc2nc(Cl)c(C3CC(c4ccccc4O)=NN3C3=NC(=O)CS3)cc2c1 (stereo unspecified)
2,250,Cc1ccc2nc(Cl)c(C3CC(c4ccccc4F)=NN3C3=NC(=O)CS3)cc2c1 (stereo unspecified)
3,50,Cc1ccc2nc(Cl)c(C3CC(c4ccc(F)cc4)=NN3C3=NC(=O)CS3)cc2c1 (stereo unspecified)
4,50,Cc1ccc2nc(Cl)c(C3CC(c4ccccc4Cl)=NN3C3=NC(=O)CS3)cc2c1 (stereo unspecified)
5,250,Cc1ccc2nc(Cl)c(C3CC(c4ccc([N+](=O)[O-])cc4)=NN3C3=NC(=O)CS3)cc2c1 (stereo unspecified)
6,500,Cc1ccc2nc(Cl)c(C3CC(c4cccc([N+](=O)[O-])c4)=NN3C3=NC(=O)CS3)cc2c1 (stereo unspecified)
7,12.5,Cc1ccc2nc(Cl)c(C3CC(c4ccccc4[N+](=O)[O-])=NN3C3=NC(=O)CS3)cc2c1 (stereo unspecified)

# Tested on: Escherichia coli
# Assay: Antibacterial activity against Escherichia coli MTCC 443 assessed as growth inhibition after 24 hr by NCCLS broth microdilution method
# Type: functional
# Settings: MTCC 443, 24 h
row,SMILES,MIC [µg/mL]
1,CC1(C)S[C@@H]2[C@H](NC(=O)[C@H](N)c3ccccc3)C(=O)N2[C@H]1C(=O)O [AMPICILLIN],100
2,COc1ccc(C2=NN(C3=NC(=O)CS3)C(c3cc4cc(C)ccc4nc3Cl)C2)cc1 (stereo unspecified),500
3,Cc1ccc2nc(Cl)c(C3CC(c4cccc(F)c4)=NN3C3=NC(=O)CS3)cc2c1 (stereo unspecified),500
4,Cc1ccc2nc(Cl)c(C3CC(c4ccc(Cl)cc4)=NN3C3=NC(=O)CS3)cc2c1 (stereo unspecified),250
5,Cc1ccc2nc(Cl)c(C3CC(c4ccc(O)cc4)=NN3C3=NC(=O)CS3)cc2c1 (stereo unspecified),500
6,Cc1ccc2nc(Cl)c(C3CC(c4ccccc4)=NN3C3=NC(=O)CS3)cc2c1 (stereo unspecified),500

# Now from value to molecule:
row,MIC [µg/mL],SMILES
1,500,Cc1ccc2nc(Cl)c(C3CC(c4ccccc4O)=NN3C3=NC(=O)CS3)cc2c1 (stereo unspecified)
2,25,Cc1ccc2nc(Cl)c(C3CC(c4ccccc4F)=NN3C3=NC(=O)CS3)cc2c1 (stereo unspecified)
3,50,Cc1ccc2nc(Cl)c(C3CC(c4ccc(F)cc4)=NN3C3=NC(=O)CS3)cc2c1 (stereo unspecified)
4,50,Cc1ccc2nc(Cl)c(C3CC(c4ccccc4Cl)=NN3C3=NC(=O)CS3)cc2c1 (stereo unspecified)
5,50,Cc1ccc2nc(Cl)c(C3CC(c4ccc([N+](=O)[O-])cc4)=NN3C3=NC(=O)CS3)cc2c1 (stereo unspecified)
6,250,Cc1ccc2nc(Cl)c(C3CC(c4cccc([N+](=O)[O-])c4)=NN3C3=NC(=O)CS3)cc2c1 (stereo unspecified)
7,25,Cc1ccc2nc(Cl)c(C3CC(c4ccccc4[N+](=O)[O-])=NN3C3=NC(=O)CS3)cc2c1 (stereo unspecified)

# Tested on: Aspergillus clavatus
# Assay: Antifungal activity against Aspergillus clavatus MTCC 1323 assessed as growth inhibition after 48 hr by NCCLS broth microdilution method
# Type: functional
# Settings: MTCC 1323, 48 h
row,SMILES,MIC [µg/mL]
1,COC1=CC(=O)C[C@@H](C)[C@]12Oc1c(Cl)c(OC)cc(OC)c1C2=O [GRISEOFULVIN],100
2,COc1ccc(C2=NN(C3=NC(=O)CS3)C(c3cc4cc(C)ccc4nc3Cl)C2)cc1 (stereo unspecified),500
3,Cc1ccc2nc(Cl)c(C3CC(c4cccc(F)c4)=NN3C3=NC(=O)CS3)cc2c1 (stereo unspecified),500
4,Cc1ccc2nc(Cl)c(C3CC(c4ccc(Cl)cc4)=NN3C3=NC(=O)CS3)cc2c1 (stereo unspecified),50
5,Cc1ccc2nc(Cl)c(C3CC(c4ccc(O)cc4)=NN3C3=NC(=O)CS3)cc2c1 (stereo unspecified),1000
6,Cc1ccc2nc(Cl)c(C3CC(c4ccccc4)=NN3C3=NC(=O)CS3)cc2c1 (stereo unspecified),500

# Continued, values first:
row,MIC [µg/mL],SMILES
1,1000,Cc1ccc2nc(Cl)c(C3CC(c4ccccc4O)=NN3C3=NC(=O)CS3)cc2c1 (stereo unspecified)
2,500,Cc1ccc2nc(Cl)c(C3CC(c4ccccc4F)=NN3C3=NC(=O)CS3)cc2c1 (stereo unspecified)
3,100,Cc1ccc2nc(Cl)c(C3CC(c4ccc(F)cc4)=NN3C3=NC(=O)CS3)cc2c1 (stereo unspecified)
4,100,Cc1ccc2nc(Cl)c(C3CC(c4ccccc4Cl)=NN3C3=NC(=O)CS3)cc2c1 (stereo unspecified)
5,100,Cc1ccc2nc(Cl)c(C3CC(c4ccc([N+](=O)[O-])cc4)=NN3C3=NC(=O)CS3)cc2c1 (stereo unspecified)
6,50,Cc1ccc2nc(Cl)c(C3CC(c4cccc([N+](=O)[O-])c4)=NN3C3=NC(=O)CS3)cc2c1 (stereo unspecified)
7,12.5,Cc1ccc2nc(Cl)c(C3CC(c4ccccc4[N+](=O)[O-])=NN3C3=NC(=O)CS3)cc2c1 (stereo unspecified)

# Tested on: Aspergillus niger
# Assay: Antifungal activity against Aspergillus niger MTCC 282 assessed as growth inhibition after 48 hr by NCCLS broth microdilution method
# Type: functional
# Settings: MTCC 282, 48 h
row,SMILES,MIC [µg/mL]
1,COC1=CC(=O)C[C@@H](C)[C@]12Oc1c(Cl)c(OC)cc(OC)c1C2=O [GRISEOFULVIN],100
2,COc1ccc(C2=NN(C3=NC(=O)CS3)C(c3cc4cc(C)ccc4nc3Cl)C2)cc1 (stereo unspecified),500
3,Cc1ccc2nc(Cl)c(C3CC(c4cccc(F)c4)=NN3C3=NC(=O)CS3)cc2c1 (stereo unspecified),500
4,Cc1ccc2nc(Cl)c(C3CC(c4ccc(Cl)cc4)=NN3C3=NC(=O)CS3)cc2c1 (stereo unspecified),100
5,Cc1ccc2nc(Cl)c(C3CC(c4ccc(O)cc4)=NN3C3=NC(=O)CS3)cc2c1 (stereo unspecified),1000
6,Cc1ccc2nc(Cl)c(C3CC(c4ccccc4)=NN3C3=NC(=O)CS3)cc2c1 (stereo unspecified),500

# Other lines, results leading:
row,MIC [µg/mL],SMILES
1,500,Cc1ccc2nc(Cl)c(C3CC(c4ccccc4O)=NN3C3=NC(=O)CS3)cc2c1 (stereo unspecified)
2,50,Cc1ccc2nc(Cl)c(C3CC(c4ccccc4F)=NN3C3=NC(=O)CS3)cc2c1 (stereo unspecified)
3,250,Cc1ccc2nc(Cl)c(C3CC(c4ccc(F)cc4)=NN3C3=NC(=O)CS3)cc2c1 (stereo unspecified)
4,50,Cc1ccc2nc(Cl)c(C3CC(c4ccccc4Cl)=NN3C3=NC(=O)CS3)cc2c1 (stereo unspecified)
5,25,Cc1ccc2nc(Cl)c(C3CC(c4ccc([N+](=O)[O-])cc4)=NN3C3=NC(=O)CS3)cc2c1 (stereo unspecified)
6,100,Cc1ccc2nc(Cl)c(C3CC(c4cccc([N+](=O)[O-])c4)=NN3C3=NC(=O)CS3)cc2c1 (stereo unspecified)
7,50,Cc1ccc2nc(Cl)c(C3CC(c4ccccc4[N+](=O)[O-])=NN3C3=NC(=O)CS3)cc2c1 (stereo unspecified)

# Tested on: Streptococcus pyogenes
# Assay: Antibacterial activity against Streptococcus pyogenes MTCC 442 assessed as growth inhibition after 24 hr by NCCLS broth microdilution method
# Type: functional
# Settings: MTCC 442, 24 h
row,SMILES,MIC [µg/mL]
1,CC1(C)S[C@@H]2[C@H](NC(=O)[C@H](N)c3ccccc3)C(=O)N2[C@H]1C(=O)O [AMPICILLIN],100
2,COc1ccc(C2=NN(C3=NC(=O)CS3)C(c3cc4cc(C)ccc4nc3Cl)C2)cc1 (stereo unspecified),500
3,Cc1ccc2nc(Cl)c(C3CC(c4cccc(F)c4)=NN3C3=NC(=O)CS3)cc2c1 (stereo unspecified),100
4,Cc1ccc2nc(Cl)c(C3CC(c4ccc(Cl)cc4)=NN3C3=NC(=O)CS3)cc2c1 (stereo unspecified),50
5,Cc1ccc2nc(Cl)c(C3CC(c4ccc(O)cc4)=NN3C3=NC(=O)CS3)cc2c1 (stereo unspecified),250
6,Cc1ccc2nc(Cl)c(C3CC(c4ccccc4)=NN3C3=NC(=O)CS3)cc2c1 (stereo unspecified),500

# Continued, values first:
row,MIC [µg/mL],SMILES
1,250,Cc1ccc2nc(Cl)c(C3CC(c4ccccc4O)=NN3C3=NC(=O)CS3)cc2c1 (stereo unspecified)
2,500,Cc1ccc2nc(Cl)c(C3CC(c4ccccc4F)=NN3C3=NC(=O)CS3)cc2c1 (stereo unspecified)
3,25,Cc1ccc2nc(Cl)c(C3CC(c4ccc(F)cc4)=NN3C3=NC(=O)CS3)cc2c1 (stereo unspecified)
4,50,Cc1ccc2nc(Cl)c(C3CC(c4ccccc4Cl)=NN3C3=NC(=O)CS3)cc2c1 (stereo unspecified)
5,50,Cc1ccc2nc(Cl)c(C3CC(c4ccc([N+](=O)[O-])cc4)=NN3C3=NC(=O)CS3)cc2c1 (stereo unspecified)
6,500,Cc1ccc2nc(Cl)c(C3CC(c4cccc([N+](=O)[O-])c4)=NN3C3=NC(=O)CS3)cc2c1 (stereo unspecified)
7,25,Cc1ccc2nc(Cl)c(C3CC(c4ccccc4[N+](=O)[O-])=NN3C3=NC(=O)CS3)cc2c1 (stereo unspecified)

# Tested on: Candida albicans
# Assay: Antifungal activity against Candida albicans MTCC 227 assessed as growth inhibition after 48 hr by NCCLS broth microdilution method
# Type: functional
# Settings: MTCC 227, 48 h
row,SMILES,MIC [µg/mL]
1,COC1=CC(=O)C[C@@H](C)[C@]12Oc1c(Cl)c(OC)cc(OC)c1C2=O [GRISEOFULVIN],500
2,COc1ccc(C2=NN(C3=NC(=O)CS3)C(c3cc4cc(C)ccc4nc3Cl)C2)cc1 (stereo unspecified),1000
3,Cc1ccc2nc(Cl)c(C3CC(c4cccc(F)c4)=NN3C3=NC(=O)CS3)cc2c1 (stereo unspecified),1000
4,Cc1ccc2nc(Cl)c(C3CC(c4ccc(Cl)cc4)=NN3C3=NC(=O)CS3)cc2c1 (stereo unspecified),500
5,Cc1ccc2nc(Cl)c(C3CC(c4ccc(O)cc4)=NN3C3=NC(=O)CS3)cc2c1 (stereo unspecified),1000
6,Cc1ccc2nc(Cl)c(C3CC(c4ccccc4)=NN3C3=NC(=O)CS3)cc2c1 (stereo unspecified),1000

# Other lines, results leading:
row,MIC [µg/mL],SMILES
1,1000,Cc1ccc2nc(Cl)c(C3CC(c4ccccc4O)=NN3C3=NC(=O)CS3)cc2c1 (stereo unspecified)
2,100,Cc1ccc2nc(Cl)c(C3CC(c4ccccc4F)=NN3C3=NC(=O)CS3)cc2c1 (stereo unspecified)
3,250,Cc1ccc2nc(Cl)c(C3CC(c4ccc(F)cc4)=NN3C3=NC(=O)CS3)cc2c1 (stereo unspecified)
4,100,Cc1ccc2nc(Cl)c(C3CC(c4ccccc4Cl)=NN3C3=NC(=O)CS3)cc2c1 (stereo unspecified)
5,500,Cc1ccc2nc(Cl)c(C3CC(c4ccc([N+](=O)[O-])cc4)=NN3C3=NC(=O)CS3)cc2c1 (stereo unspecified)
6,500,Cc1ccc2nc(Cl)c(C3CC(c4cccc([N+](=O)[O-])c4)=NN3C3=NC(=O)CS3)cc2c1 (stereo unspecified)
7,250,Cc1ccc2nc(Cl)c(C3CC(c4ccccc4[N+](=O)[O-])=NN3C3=NC(=O)CS3)cc2c1 (stereo unspecified)

# Tested on: Staphylococcus aureus
# Assay: Antibacterial activity against Staphylococcus aureus MTCC 96 assessed as growth inhibition after 24 hr by NCCLS broth microdilution method
# Type: functional
# Settings: MTCC 96, 24 h
row,SMILES,MIC [µg/mL]
1,CC1(C)S[C@@H]2[C@H](NC(=O)[C@H](N)c3ccccc3)C(=O)N2[C@H]1C(=O)O [AMPICILLIN],250
2,COc1ccc(C2=NN(C3=NC(=O)CS3)C(c3cc4cc(C)ccc4nc3Cl)C2)cc1 (stereo unspecified),500
3,Cc1ccc2nc(Cl)c(C3CC(c4cccc(F)c4)=NN3C3=NC(=O)CS3)cc2c1 (stereo unspecified),500
4,Cc1ccc2nc(Cl)c(C3CC(c4ccc(Cl)cc4)=NN3C3=NC(=O)CS3)cc2c1 (stereo unspecified),50
5,Cc1ccc2nc(Cl)c(C3CC(c4ccc(O)cc4)=NN3C3=NC(=O)CS3)cc2c1 (stereo unspecified),500
6,Cc1ccc2nc(Cl)c(C3CC(c4ccccc4)=NN3C3=NC(=O)CS3)cc2c1 (stereo unspecified),250

# Other lines, results leading:
row,MIC [µg/mL],SMILES
1,500,Cc1ccc2nc(Cl)c(C3CC(c4ccccc4O)=NN3C3=NC(=O)CS3)cc2c1 (stereo unspecified)
2,100,Cc1ccc2nc(Cl)c(C3CC(c4ccccc4F)=NN3C3=NC(=O)CS3)cc2c1 (stereo unspecified)
3,100,Cc1ccc2nc(Cl)c(C3CC(c4ccc(F)cc4)=NN3C3=NC(=O)CS3)cc2c1 (stereo unspecified)
4,250,Cc1ccc2nc(Cl)c(C3CC(c4ccccc4Cl)=NN3C3=NC(=O)CS3)cc2c1 (stereo unspecified)
5,100,Cc1ccc2nc(Cl)c(C3CC(c4ccc([N+](=O)[O-])cc4)=NN3C3=NC(=O)CS3)cc2c1 (stereo unspecified)
6,500,Cc1ccc2nc(Cl)c(C3CC(c4cccc([N+](=O)[O-])c4)=NN3C3=NC(=O)CS3)cc2c1 (stereo unspecified)
7,250,Cc1ccc2nc(Cl)c(C3CC(c4ccccc4[N+](=O)[O-])=NN3C3=NC(=O)CS3)cc2c1 (stereo unspecified)
